Results as given in patent publication US20090004302A1, “Methods and Therapeutic Compositions Comprising Plant Extracts for the Treatment of Cancer” (priority 2004, published 2009).
Values joined by “and” are separate entries in the source; they are usually repeats but may differ in a detail not shown here. Equal entries are not always repeated.

Legend:
[1] = tested on: LLC1 cells clone M27 lung tumour metastases; experiment: Lewis lung carcinoma (LLC) model of tumour metastasis; format: in vivo, C57BL/6 mice; conditions: for Mean (SD) tumours/animal / % reduction compared to control (lung tumour metastases) / Total tumour burden (per group): Day 14
Protocol: The Lewis lung carcinoma model in C57BL/6 mice was used for this study. Lewis lung carcinoma is an aggressive, highly metastatic cell line. LLC1 cells clone M27 (3×10^5 cells, screened for mycoplasma) were injected on Day 0 into the tail vein of each mouse. The mice were divided into 7 groups and received the treatments outlined below. Oral administration of plant extracts was initiated 9 days prior to injection of LLC cells (i.e. on day-9) and continued for […] along with sub-optimal doses of cisplatin (see below). Group 1: […] Group 2: […] Group 3: […] Group 4: Therapeutic combination 1 (TC1) was administered to this group. […] Group 5: Therapeutic combination 2 (TC2) was administered to this group. […] Group 6: Therapeutic combination 3 (TC3) was administered to this group. […] Group 7: Therapeutic combination 4 (TC4) was administered to this group. […] At the end of the experiment (Day 14), the animals were humanely sacrificed, the lungs resected and fixed by direct immersion for approximately 24 hrs in Bouin's fixing media. Metastatic colonies on each lung surface of each mouse were counted by direct observation under a dissecting microscope in a blinded manner by three different investigators.

[2] = tested on: B16F10 melanoma subcutaneous tumour; experiment: B16F10 melanoma model of tumour growth; format: in vivo, C57BL/6 mice; conditions: Day 14
Protocol: The B16F10 melanoma model in C57BL/6 mice was used for this study. B16F10 cells (1×10^6 cells, screened for mycoplasma) were injected subcuteanously on Day 0 on the right flank of each mouse. The mice were divided into 9 groups and received the treatments outlined below. Plant extracts A and B (see Example VI) were used in this study.
Oral administration of plant extracts was initiated 7 days prior to injection of the B16F10 cells (i.e. on day-7) and continued for […] with or without sub-optimal doses of doxorubicin (see below).
Group 1: The vehicle used for administration of the plant extracts was used as a negative control for the experiment. Group 2: Doxorubicin (2.5 mg/kg), a standard positive control in the B16F10 melanoma model at optimal dosage, was injected intraperitoneally on days 5, 9 and 13. Group 3: Doxorubicin (1 mg/kg), a sub-optimal dose in this model, was injected intraperitoneally on days 5, 9 and 13. Group 4: Therapeutic plant extract A (PA1) was administered by gavage (200 mg/kg) from days-7 to 14. Group 5: Therapeutic plant extract B (PB1) was administered by gavage (200 mg/kg) from days-7 to 14. Group 6: Therapeutic combination 5 (TC5) was administered to this group. TC5 comprised plant extract A and doxorubicin (1 mg/kg). Plant extract A was administered by gavage (200 mg/kg) from days-7 to 14 and doxorubicin was injected intraperitoneally on days 5, 9 and 13. Group 7: Therapeutic combination 6 (TC6) was administered to this group. TC6 comprised plant extract B and doxorubicin (1 mg/kg). Plant extract B was administered by gavage (200 mg/kg) from days-7 to 14 and doxorubicin was injected intraperitoneally on days 5, 9 and 13. Group 8: Therapeutic combination 7 (TC7) was administered to this group. TC7 comprised plant extract A, plant extract B and doxorubicin (1 mg/kg). […]
The subcutaneous tumour was measured on each animal with an electronic calliper starting on day 5 and repeated on days 8, 11 and 14 and the volume of tumour was calculated according to formula: […]. […]

SMILES | Mean (SD) tumours/animal ([1]; cisplatin 2 mg/kg i.p. days 1, 4, 7, 10, 13) | % reduction compared to control (lung tumour metastases) ([1]; cisplatin 2 mg/kg i.p.) | Total tumour burden (per group) ([1]; cisplatin 2 mg/kg i.p.) | body weight of animals ([1]; cisplatin 5 mg/kg dose) | Mean (SD) tumours/animal ([1]; cisplatin 5 mg/kg i.p. days 1, 4, 7, 10, 13) | % reduction compared to control (lung tumour metastases) ([1]; cisplatin 5 mg/kg i.p.) | Total tumour burden (per group) ([1]; cisplatin 5 mg/kg i.p.) | Volume (mm^3) of tumour ([2]; doxorubicin 1 mg/kg i.p. days 5, 9, 13) [mm^3] | % growth of tumour ([2]; doxorubicin 1 mg/kg i.p.) [%] | Diameter (mm) of tumour ([2]; doxorubicin 1 mg/kg i.p.) [mm]
N.N.[Cl][Pt][Cl] [Cisplatin] | 24.70 | 27% and 26.7% | 346 | sharp decrease | 1.46 | 96% and 95.6% | 21 |  |  | 
COc1cccc2c1C(=O)c1c(O)c3c(c(O)c1C2=O)C[C@@](O)(C(=O)CO)C[C@@H]3O[C@H]1C[C@H](N)[C@H](O)[C@H](C)O1 [Doxorubicin] |  |  |  |  |  |  |  | 2682 ± 220 | 247 ± 30 | 21.4 ± 1.1
